“Also recorded” adds a separate entry of the source.
Assays:
caspase 8 [1] = test: caspase 8 cleavage in Jurkat cells; assay type: cell-based, human; conditions: for effect on caspase 8 cleavage: Jurkat cells stimulated through Fas, plus inhibitor
From the text: (§1) As previously reported, Jurkat T cells underwent Fas-induced apoptosis (7.6+2.8% apoptotic cells in the untreated cultures versus 31.3±3.5% in the anti-Fas antibody-treated cultures) (Wilson, D. et al., 1999, Cell Lnmunol., 194:67). […] We then treated the cells with Fas Ligand (FasL) constructs, consisting of FasL fused to a linker peptide and a FLAG-tag that facilitate formation of active trimers. […] Conversely, blockade of the ERK pathway by the MEK1-specific inhibitor PD98059 had no effect on Jurkat apoptosis. […] In addition, we examined replicate populations of cells for evidence of caspase 8 cleavage as an indication of Fas-induced apoptosis, after 4 hours in culture with control antibodies or anti-Fas antibodies.
(§2) Furthermore, SH-SY5Y cells expressed dramatically less caspase 8 than did Jurkat cells, although they expressed similar levels of FLIP and of Fas. Low levels of caspase 8 expression and inefficient (or non-physiological) Fas ligation by anti-Fas antibody could have masked potential Fas-induced caspase 8 cleavage in SH-SY5Y cells. Therefore, we stimulated the cells with FasL constructs and normalized protein loading to equivalent caspase 8 (instead of equivalent total protein).

DRG neurons = test: dorsal root ganglia (DRG) neurite outgrowth assay; assay type: cell-based, mice; conditions: for effect on Fas-induced neurite growth: DRGs stimulated through Fas; for neurite outgrowth from DRGs: neonatal mice
From the text: We have shown that engaging Fas on sensory neurons induces a rapid, extensive regenerative response. We used the dorsal root ganglia (DRG) neurite outgrowth assay to determine whether Fas engagement could induce axon regeneration in vitro. […] We cultured DRGs with anti-Fas antibodies, with isotype matched control antibodies (as a negative control) or with NGF (as a positive control).
Fas engagement induces neurite outgrowth and p35 upregulation in dorsal root ganglia (D)RG) explants. To determine whether Fas-induced activation of the ERK/p35 pathway in neuroblastoma cells correlated with neurite sprouting in primary neurons, we used the DRG neurite outgrowth assay, a well characterized model for axon regeneration from primary neurons in vitro (Harada, T. et al., 2001, Nat. Cell Biol., 3:453). DRGs are collections of sensory neuron cell bodies, together with supporting Schwann cells and fibroblasts. […] We examined Fas expression selectively on the DRG neurons by flow cytometric analysis of DRG cells positive for neuron-specific tubulin III, thus excluding Schwann cells and other non-neural cell types from the analysis. […] The uniform shift in fluorescence intensity, without the presence of distinct subpopulations, indicates uniform Fas expression on the DRG neurons (geometric mean fluorescence intensity shift from 10.95 with negative control staining to 22.39 with anti-Fas staining). DRG explants were cultured with anti-Fas antibodies, with isotype-matched control antibodies (as a negative control), or with NGF (as a positive control). […] Fas-induced neurite outgrowth was indistinguishable from NGF-induced neurite outgrowth kinetically and by morphological criteria (neurite numbers, length, and branching), and could not be differentiated by blinded observers. Fas-induced neurite growth was robust and prolific, completely filling the wells of 96-well plates after two weeks in culture. […] Thus, Fas engagement induced a rapid and prolific neurite outgrowth response in primary sensory neurons.

[2] = test system: SH-SY5Y neuroblastoma cells; test: Fas-induced apoptosis, cell cycle analysis by flow cytometry; assay type: cell-based, human; conditions: for effect on apoptosis of FasL-treated neuroblastoma cells: SH-SY5Y, FasL constructs plus inhibitor
From the text: (§3) SH-SY5Y neuroblastoma cells are insensitive to Fas-mediated apoptosis. We used the well-characterized Fas-positive human neuroblastoma cell line SH-SY5Y to investigate Fas signaling in neuronal cells. Because Fas is best known as an inducer of apoptosis, we began by examining anti-Fas-treated SH-SY5Y cells for evidence of Fas-induced apoptosis. Jurkat cells, a human T cell leukemia line considered a model for Fas-mediated apoptosis (Wilson, D. et al., 1999, Cell Immunol., 194:67), provided a positive control. We confirmed that SH-SY5Y cells expressed cell surface Fas by flow cytometry. We then performed cell cycle analysis by flow cytometry on untreated and anti-Fas-treated Jurkat and SH-SY5Y cells after 48 hours in culture.
as §1

Jurkat cells = test: as above; assay type: cell-based, human; conditions: for effect on apoptosis induction by FasL constructs: Jurkat cells, FasL constructs plus inhibitor
From the text: as §3, §1

p35 [3] = test: Fas-induced p35 expression in SH-SY5Y cells; assay type: cell-based, human; conditions: anti-Fas antibodies plus inhibitor
Description: Sustained activation of ERK for more than 80 minutes was necessary and sufficient for NGF-inducible neurite outgrowth, and p35 upregulation driven by sustained ERK activation is an essential component of this pathway (Pang, L. et al., 1995, J. Biol. Chem., 270:13585; Harada, T. et al., 2001, Nat. Cell Biol., 3:453). Thus, we examined SH-SY5Y cells for Fas-induced p35 expression. […] Thus, Fas engagement-induced sustained ERK activation and MEKI / ERK-dependent p35 expression in SH-SY5Y neuroblastoma cells.

ERK = ERK activation (dual phosphorylation at threonine 202 and tyrosine 204) in SH-SY5Y cells; assay type: cell-based, human; conditions: for effect on Fas-induced ERK activation: plus inhibitor
Description: Fas engagement induces ERK activation and p35 expression in SY-SHSY cells. Fas cross-linking has been reported to activate ERK in glioma cells (Shinohara, H. et al., 2000, Cancer Research, 60:1766). […] Fas-induced ERK activation was inhibited by PD98059, but appeared to be caspase 8 independent as it was not affected by […]. ERK activation was detected within five minutes of Fas engagement, and persisted for up to 150 minutes.

B7.1 = test: cell surface B7.1 on C17.2 neuronal stem cells after H2O2; assay type: cell-based, mouse; conditions: C17.2 cells, 24-hr exposure, 0.25 mM
Fas (CD95) = test: cell surface Fas on C17.2 neuronal stem cells after H2O2; assay type: cell-based, mouse; conditions: C17.2 cells, 24-hr exposure, 0.25 mM
Description: Non-permeabilized cells were stained with antibodies to the cell surface receptors Fas (CD95) (Pharmingen) or with antibodies to uncoupling proteins (anti-UCP2 antibody) (Alpha Diagnostic International). Antibodies for both the isotype control and actual stain were added to the cell suspension, mixed, and then placed on ice for and incubation of 25 minutes in the dark. Subsequently the cells were centrifuged at 300×g for 5 minutes and the supernatant removed. The cells were washed one time with 100 μL of PBS/2% FBS and then transferred into flow cyotmetric tubes containing 500 μL of PBS/2% FBS for analysis.
We have measured the levels of intracellular H2O2 in these cells. […] C17.2 cells from passage 15 contained 4-fold higher amount of UCP-2 than C17.2 cells at passage 11. Ts65Dn mice and controls fed regular and fatty acid enriched diet. The effects of dietary supplementation with alpha lipoic acid (LA) and […] (ALCAR) on the Ts65Dn mouse and the strain matched control animals have been examined. […] We attempted this supplementation with old (18 months) Ts65Dn mice.
C17.2 mouse neuronal stem cells (a kind gift from Dr. Evan Schnyder, Harvard) were cultured as described in the Methods above. The cells were treated or not with H2O2 at the concentration indicated on the graphs of FIG. 2. […]

p35 [4] = test: p35 upregulation in DRG explants (Western blots); assay type: cell-based, mice; conditions: 24-hour stimulation, p35 normalized to actin
From the text: As in SH-SY5Y neurons, Fas engagement induced p35 upregulation in DRG explants after 24-hour stimulation. […] Fas-induced neurite growth is independent of NGF and caspase 8 function, but dependent on ERK activation.

caspase 8 [5] = test: caspase 8 cleavage in SH-SY5Y cells; assay type: cell-based, human
From the text: as §1, §2

COc1cccc(-c2cc(=O)c3ccccc3o2)c1N [PD98059]
effect on caspase 8 cleavage (caspase 8 [1]): unaffected
toxicity to other DRG cells such as Schwann cells (DRG neurons; DRG explants): not toxic
effect on Fas-induced neurite growth (DRG neurons): prevented
effect on NGF-induced neurite outgrowth (DRG neurons; DRGs stimulated with NGF): blocked
toxicity to DRG neurons (DRG neurons; inhibitor washed out after two days, restimulated with NGF or FasL constructs): did not kill the neurons
effect on apoptosis of FasL-treated neuroblastoma cells [2]: Neither IETD nor PD98059 had any effect
effect on apoptosis induction by FasL constructs (Jurkat cells): no effect
effect on Fas-induced p35 upregulation (p35 [3]): prevented
effect on Fas-induced ERK activation (ERK): inhibited

OO [H2O2]
cell surface expression of B7.1 (B7.1): increased
cell surface expression of Fas (CD95) (Fas (CD95)): increased

z-IETD-frnk
effect on caspase 8 cleavage (caspase 8 [1]): reduced to background levels
effect on Fas-induced neurite growth (DRG neurons): not affected; also recorded: not blocked
effect on apoptosis of FasL-treated neuroblastoma cells [2]: Neither IETD nor PD98059 had any effect
effect on apoptosis induction by FasL constructs (Jurkat cells): completely abrogated
effect on Fas-induced ERK activation (ERK): not affected

nerve growth factor [NGF]
neurite outgrowth from DRGs (DRG neurons; DRG explants): sprout neurites
neurite outgrowth in dissociated DRG cultures (DRG neurons; glial growth suppressed with cytosine arabinoside): induced
neurite outgrowth from DRGs of lpr mice (DRG neurons; lpr mice, low to absent Fas expression): delayed and diminished neurite outgrowth
p35 upregulation compared to untreated DRGs (p35 [4]): 3.3 fold

B1: FasL constructs: FasL fused to a linker peptide and a FLAG-tag that facilitate formation of active trimers (protein, UniProt P48023 130-281, looked up)
Tumor necrosis factor ligand …: QIGHPSPPPEKKELRKVAHLTGKSNSRSMPLEWEDTYGIVLLSGVKYKKGGLVINETGLYFVYSKVYFRGQSCNNLPLSHKVYMRNSKYPQDLVMMEGKMMSYCTTGQMWARSSYLGAVFNLTSADHLYVNVSELSLVNFEESQTFFGLYKL
modifications: linker, FLAG tag
increase of caspase 8 cleavage, treated versus untreated cells (caspase 8 [1]; Jurkat cells, loading normalized to equivalent caspase 8): more than 60%
induction of caspase 8 cleavage (caspase 8 [5]): no increase
neurite outgrowth from DRGs (DRG neurons; DRG explants): induced robust neurite growth
apoptotic response ([2]; SH-SY5Y cells): failed to induce any detectable apoptotic response
apoptotic cells (Jurkat cells; Jurkat, after 24 hour treatment): > 90%
ERK activation (ERK): triggered ERK activation
